Test results: US11007167B2, “Methods of treating multiple sclerosis” (Biogen MA Inc., priority 2014, dated 2021)
Entries after “also recorded” stand apart in the source; their conditions may differ. Counter-ions that a name gives are not always drawn.

Columns and labels:
JCV = settings: literature report; cited from earlier work
healthy volunteer = test: Healthy volunteer study: aspirin prior to DMF dosing (flushing); assay type: in vivo, human; settings: 325 mg non-enteric coated aspirin 30 minutes prior to DMF dosing
Method: In a specific embodiment, a NSAID (e.g., aspirin) is administered concurrently, before, and/or after administration of the fumarate (e.g., DMF). […] Some subjects who experience flushing with gastrointestinal side effects may reduce the dose to 120 mg DMF BID temporarily. Within a month, the effective dose of 240 mg DMF BID or 240 mg DMF TID should be resumed.

MS patients [1] = test: Absolute lymphocyte count (ALC) profiles in DMF-treated MS patients (Phase 2b, DEFINE, CONFIRM, ENDORSE); assay type: in vivo, human
Method: (§1) The Phase 2b study, DEFINE, and CONFIRM were multicenter, randomized, double-blind, placebo-controlled, parallel-group clinical trials of DMF as monotherapy for RRMS.
The Phase 2b study was 12 months in duration, including a 6-month placebo-controlled part (Part 1) and a 6-month uncontrolled safety extension part (Part 2). During Part 1, patients were randomized equally to DMF 120 mg once daily (QD), 120 mg three times daily (TID), 240 mg TID, or placebo.
(§2) DEFINE and CONFIRM were 2 years in duration. Patients were randomized equally to DMF 240 mg twice daily (BID), 240 mg TID, or matching placebo.
ENDORSE is a multicenter, parallel-group, dose-blinded extension of DEFINE/CONFIRM with up to 8 additional years of follow-up.
In the Phase 2b study, blood was collected every 4 weeks.
In DEFINE and CONFIRM, blood was collected every 4 weeks for the first 3 months and every 12 weeks thereafter, and within 1 month after study withdrawal or study completion if not continuing in the extension study.
In ENDORSE, blood was collected at baseline and every 12 weeks thereafter
ALCs were graded per Common Terminology Criteria for Adverse Events (CTCAE; Table 9).^9
Data from DEFINE and CONFIRM after subjects switched to alternative MS treatment were excluded.
Data from the 6-month uncontrolled safety extension of the Phase 2b study were included.

patients with RRMS [2] = test: Annualized relapse rate / clinical efficacy in DEFINE and CONFIRM; assay type: in vivo, human; settings: DMF 240 mg BID; for Rate ratio (95% CI) for adjusted ARR for DMF versus placebo: 2 years
Description: FIGS. 4A-4B depict reduction in ARR at 2 years in DEFINE (FIG. 4A) and CONFIRM (FIG. 4B) in patients in the DMF BID group with lymphopenia (at least 1 ALC less than LLN) or without lymphopenia (all ALCs greater than or equal to LLN) compared with all patients in placebo group. ARR=annualized relapse rate; CI=confidence interval. ^aDMF is delayed-release DMF (also known as gastro-resistant DMF, and as TECFIDERA®). ^bBased on negative binomial regression, adjusted for study, baseline EDSS (≤2.0 vs >2.0), baseline age (<40 vs ≥40), region, and number of relapses in the 1 year prior to study entry.
as §1, §2

MS patients [3] = test: Serious infections by worst post-baseline CTC grade (Phase 2b, DEFINE, CONFIRM, ENDORSE); assay type: in vivo, human
Description: The Phase 2b study, […], and CONFIRM were multicenter, randomized, double-blind, placebo-controlled, parallel-group clinical trials of DMF as monotherapy for RRMS. ALCs were graded per Common Terminology Criteria for Adverse Events (CTCAE; Table 9).^9

patients with RRMS [4] = settings: DEFINE Phase 3 study; after two years of treatment; cited from earlier work
patient with MS = test: Occurrence of progressive multifocal leukoencephalopathy (PML) in treated MS patients; settings: prolonged lymphopenia
[5] = All ALCs ≥ 500/mm^3 within the first 1 year
[6] = All ALCs ≥ 500/mm^3 within the first 6 months
[7] = All ALCs ≥ 800/mm^3 within the first 1 year
[8] = All ALCs ≥ 800/mm^3 within the first 6 months
[9] = At least 1 ALC < 500/mm^3 (row r11) within the first 1 year
[10] = At least 1 ALC < 500/mm^3 (row r12) within the first 1 year
[11] = At least 1 ALC < 500/mm^3 (row r12) within the first 6 months
[12] = percentage of the number with worst post-baseline count in that grade

For `OC(c1cc(C(F)(F)F)nc2c(C(F)(F)F)cccc12)C1CCCCN1` (centres unmarked) [Mefloquine], the “Effect on JCV replication” value (JCV) is listed as “block JCV replication without significant toxicity”.
With `CC(=O)Oc1ccccc1C(=O)O` [aspirin] the “Occurrence and severity of flushing” value (healthy volunteer) was “reduce the occurrence and severity of flushing”.
For `COC(=O)/C=C/C(=O)OC` [DMF, dimethyl fumarate], the “ALCs after discontinuation of treatment (following final dose)” value (MS patients [1]; 9 patients with ALCs < 500 cells/μL for at least 6 months who discontinued or completed the study) was “ALCs generally increased; also recorded: All 9 patients showed increases in ALCs; also recorded: evidence of ALC improvement”, the “Patients who subsequently developed ALCs < 500/mm^3 persisting ≥ 6 months at any time, %” value (MS patients [1]; [5]) was “(0.7) %” and the “Patients who subsequently developed ALCs < 500/mm^3 persisting ≥ 6 months at any time, n/N” value (MS patients [1]; [5]) was 16/2409. For the same molecule, the “Patients who subsequently developed ALCs < 500/mm^3 persisting ≥ 6 months at any time, %” value (MS patients [1]; [6]) was “(1.5) %”, the “Patients who subsequently developed ALCs < 500/mm^3 persisting ≥ 6 months at any time, n/N” value (MS patients [1]; [6]) was 37/2446 and the “Patients who subsequently developed ALCs < 500/mm^3 persisting ≥ 6 months at any time, %” value (MS patients [1]; [7]) was “(0) %”. The “Patients who subsequently developed ALCs < 500/mm^3 persisting ≥ 6 months at any time, n/N” value (MS patients [1]; [7]) was 0/2050, the “Patients who subsequently developed ALCs < 500/mm^3 persisting ≥ 6 months at any time, %” value (MS patients [1]; [8]) was “(0.4) %” and the “Patients who subsequently developed ALCs < 500/mm^3 persisting ≥ 6 months at any time, n/N” value (MS patients [1]; [8]) was 9/2219. For the same molecule, the “Patients who subsequently developed ALCs < 500/mm^3 persisting ≥ 6 months at any time, n/N” value (MS patients [1]; All ALCs ≥ LLN within the first 1 year of treatment) was 0/1876, the “Patients who subsequently developed ALCs < 500/mm^3 persisting ≥ 6 months at any time, n/N” value (MS patients [1]; All ALCs ≥ LLN within the first 6 months of treatment) was 3/2083 and the “Patients who subsequently developed ALCs < 500/mm^3 persisting ≥ 6 months at any time, %” value (MS patients [1]; [9]) was “(17) %”. The “Patients who subsequently developed ALCs < 500/mm^3 persisting ≥ 6 months at any time, n/N” value (MS patients [1]; [9]) was 47/420, the “Patients who subsequently developed ALCs < 500/mm^3 persisting ≥ 6 months at any time, %” value (MS patients [1]; At least 1 ALC < 500/mm^3 (row r11) within the first 6 months) was “(10) %” and the “Patients who subsequently developed ALCs < 500/mm^3 persisting ≥ 6 months at any time, %” value (MS patients [1]; [10]) was “(51) %”. The “Patients who subsequently developed ALCs < 500/mm^3 persisting ≥ 6 months at any time, n/N” value (MS patients [1]; [10]) was 31/61, the “Patients who subsequently developed ALCs < 500/mm^3 persisting ≥ 6 months at any time, %” value (MS patients [1]; [11]) was “(42) %” and the “Patients who subsequently developed ALCs < 500/mm^3 persisting ≥ 6 months at any time, n/N” value (MS patients [1]; [11]) was 10/24. The “Patients who subsequently developed ALCs < 500/mm^3 persisting ≥ 6 months at any time, n/N” value (MS patients [1]; At least 1 ALC < 500/mm^3 within the first 6 months) was 38/251, the “Incidence of worst post-baseline ALC CTC grade 0, %” value (MS patients [1]; Total DMF, n = 2513) was “(61) %” and the “Incidence of worst post-baseline ALC CTC grade 1, %” value (MS patients [1]; Total DMF, n = 2513) was “(9) %”. For the same molecule, the “Incidence of worst post-baseline ALC CTC grade 2, %” value (MS patients [1]; Total DMF, n = 2513) was “(21) %”, the “Incidence of worst post-baseline ALC CTC grade 3 or 4, %” value (MS patients [1]; Total DMF, n = 2513) was “(7) %” and the “Patients who experienced ALCs less than 500/mm^3 persisting for greater than or equal to 6 months, %” value (MS patients [1]; among patients treated for ≥ 6 months (N=2,099)) was 2.2%. For the same molecule, the “Patients in whom ALCs remained greater than or equal to LLN” value (MS patients [1]; during the first 6 months) was 84%, the “Patients in whom ALCs remained greater than or equal to LLN” value (MS patients [1]; during the first year) was 76% and the “Course of ALCs with continued therapy” value (MS patients [1]; patients with ALCs < 500/mm^3 persisting ≥ 6 months) was “generally remained less than 500/mm^3”. The “Decrease of mean ALCs during the first year of treatment” value (MS patients [1]; then plateaued, remaining above LLN (910/mm^3) throughout the observation period) was “approximately 30%”, the “Rate ratio (95% CI) for adjusted ARR for DMF versus placebo” value (“Rate ratio (95% CI) for adjusted ARR” below) (patients with RRMS [2]; CONFIRM, patients with treatment-associated lymphopenia) was 0.525 (0.365, 0.756) and the “Rate ratio (95% CI) for adjusted ARR” value (patients with RRMS [2]; CONFIRM, patients without lymphopenia) was 0.599 (0.429, 0.835). The “Rate ratio (95% CI) for adjusted ARR” value (patients with RRMS [2]; DEFINE, patients with treatment-associated lymphopenia) was 0.424 (0.294, 0.611), the “Rate ratio (95% CI) for adjusted ARR” value (patients with RRMS [2]; DEFINE, patients without lymphopenia) was 0.509 (0.381, 0.681) and the “Reduction in ARR at 2 years versus placebo, patients with versus without lymphopenia” value (patients with RRMS [2]; DEFINE and CONFIRM) was “not substantially different”. The “Association of lymphopenia with risk of infections, serious infections, opportunistic infections” value (MS patients [3]; interim analysis of Phase 2b, DEFINE, CONFIRM, ENDORSE) was “not associated with an overall increased risk of infections or serious infections”, the “Serious infections, worst post-baseline CTC grade 0, %” value (MS patients [3]; [12]) was “(3) %” and the “Serious infections, worst post-baseline CTC grade 1, %” value (MS patients [3]; [12]) was “(5.5) %”. For the same molecule, the “Serious infections, worst post-baseline CTC grade 2, %” value (MS patients [3]; [12]) was “(4) %”, the “Serious infections, worst post-baseline CTC grade 3 or 4, %” value (MS patients [3]; [12]) was “(3) %” and the “Clinical relapses, disability progression, lesion number and volume compared with placebo” value (patients with RRMS [4]) was “significantly reduced clinical relapses, accumulation of disability progression, and lesion number and volume”. For the same molecule, the “Cases of PML” value (patient with MS; MS patient in clinical trial, severe) was “a case of PML” and the “Lymphocyte counts of the patient who developed PML” value (patient with MS; 3.5 years duration) was “less than 0.5×10^9 /L”.
For `CCCCCCCCCCCCCCCCOCCCOP(=O)(O)CO[C@H](CO)Cn1ccc(N)nc1=O` [CMX001, Hexadecyloxypropyl-Cidofovir], the “Effect on JCV replication” value (JCV) is given as “suppress JVC by inhibiting viral DNA replication”.
